We go through three compounds from US20110207804A1, “COMPOSITIONS FOR THE TREATMENT OF NEOPLASTIC DISEASES” (Slotervaart Participaties BV, priority 2008, published 2011).

Data set [1] in a line: docetaxel powder dissolution test, 25 mL water in beaker. In kind it is physicochemical. Conditions: for maximum docetaxel concentration reached / maximum docetaxel in solution, % of total docetaxel present: ±6 mg docetaxel. How it is done:
An amount of powder, equal to approximately 6 mg Docetaxel, was placed in a 50 mL beaker. A magnetic stirring bar and 25 mL water were added to the beaker. The solution was stirred at 720 rpm, and kept at approximately 37° C. Samples were collected at various timepoints, and filtrated using a 0.45 μm filter before they were diluted with a 1:4 v/v mixture of methanol and acetonitrile. The filtrated and diluted samples were subsequently analyzed by HPLC-UV (see table 15).

Data set [2] can be described thus: clinical phase I trial, docetaxel plasma pharmacokinetics. In kind it is in vivo, human. Conditions: 20 mg docetaxel liquid formulation; 100 mg ritonavir at t=0 plus 100 mg 4 hours after docetaxel; patient 306. How it is done:
10 patients participated in an ongoing clinical phase I trial.
These patients were given medication which consisted of a liquid formulation of docetaxel or a solid composition comprising a solid dispersion of docetaxel, PVP-K30 and SDS (referred to hereinafter as MODRA).
Docetaxel dose: 30 mg for all patients (with the exception of patient 306 who received 20 mg docetaxel). The 30 mg dose was prepared as follows: 3.0 mL Taxotere® premix for intravenous administration (containing 10 mg docetaxel per ml in polysorbate 80 (25% v/v), ethanol (10% (w/w), and water) was mixed with water to a final volume of 25 mL. This solution was orally ingested by the patient with 100 mL tap water.
Docetaxel dose: 30 mg; 2 capsules with 15 mg docetaxel per capsule were ingested. Formulation E from the previous example (1/11 docetaxel, 9/11 PVP-K30 and 1/11 SDS) was selected for further testing in the clinical trial. A new batch of formulation E was produced by dissolving 1200 mg docetaxel anhydrate in 120 mL of t-butanol, and 10800 mg PVP-K30 and 1200 mg SDS (see table 13) in 80 mL of Water for Injection. The docetaxel/t-butanol solution was added to the PVP-K30/SDS/WfI solution under constant stirring. […]
The bioavailability of the MODRA capsules was calculated by: […]

With `CC(=O)O[C@@]12CO[C@@H]1C[C@H](O)[C@@]1(C)C(=O)[C@H](O)C3=C(C)[C@@H](OC(=O)[C@H](O)[C@@H](NC(=O)OC(C)(C)C)c4ccccc4)C[C@@](O)([C@@H](OC(=O)c4ccccc4)[C@H]21)C3(C)C` [Formulation B, Amorphous Docetaxel], the “solubility from 10 to 60 minutes” value in data set [1] (10 to 60 minutes) was “comparable to formulation A”. Also, in data set [1] (25 mL WfI, 37° C., 720 rpm), the “time of stirring to maximum concentration” value was 0.5 min; the “maximum docetaxel concentration reached” value is 32 µg/mL; the “maximum docetaxel in solution, % of total docetaxel present” value stood at 13%.
For `CC(=O)O[C@@]12CO[C@@H]1C[C@H](O)[C@@]1(C)C(=O)[C@H](O)C3=C(C)[C@@H](OC(=O)[C@H](O)[C@@H](NC(=O)OC(C)(C)C)c4ccccc4)C[C@@](O)([C@@H](OC(=O)c4ccccc4)[C@H]21)C3(C)C` [Formulation A, Anhydrous Docetaxel], the “time at which equilibrium concentration is reached” value in data set [1] was determined as 15 min. In data set [1] (25 mL WfI, 37° C., 720 rpm), the “time of stirring to maximum concentration” value was 5 min; the “maximum docetaxel concentration reached” value is recorded as “approximately 12 μg/mL”; the “maximum docetaxel in solution, % of total docetaxel present” value is around 4.7%. Also, the “equilibrium docetaxel in solution, % of total docetaxel present” value in data set [1] (after precipitation) is recorded as around 2%. For the same compound, the equilibrium docetaxel concentration result in data set [1] (after precipitation, 25 mL WfI, 37° C., 720 rpm) is “approximately 6 μg/mL”.
Turning to `CC(=O)O[C@@]12CO[C@@H]1C[C@H](O)[C@@]1(C)C(=O)[C@H](O)C3=C(C)[C@@H](OC(=O)[C@H](O)[C@@H](NC(=O)OC(C)(C)C)c4ccccc4)C[C@@](O)([C@@H](OC(=O)c4ccccc4)[C@H]21)C3(C)C` [docetaxel], the “fold increase of docetaxel AUC by second boosting dose of ritonavir” value in data set [2] was found to be 1.5 fold.
